Measurements from ChEMBL document CHEMBL3352749, “An iridoid glucoside and the related aglycones from Cornus florida” (J Nat Prod, 2014).
Active and inactive are the calls of the source. The calls are words filed in the database; no cut-off is given here.

tested on: BG02; test: Growth inhibition of human BG02 cells up to 100 uM; assay type: functional, cell-based

SMILES | Activity
C[C@H]1C[C@@H]2OC(=O)C[C@@H]2[C@@H]1CO | inactive
C[C@H]1C[C@@H]2OC(=O)[C@@H]3C(=O)OC[C@H]1[C@@H]32 | inactive
COC(=O)[C@@H]1C(=O)OC[C@H]2[C@@H]1[C@H](O)C[C@@H]2C | inactive
C[C@H]1C[C@@H](O)[C@@H]2CC(=O)OC[C@@H]21 | inactive
COC(=O)[C@H]1C(=O)O[C@H]2C[C@H](C)[C@@H](CO[C@@H]3O[C@H](CO)[C@@H](O)[C@H](O)[C@H]3O)[C@@H]12 | inactive

biological target: T1, Peroxisome proliferator-activated receptor gamma (Homo sapiens) (UniProt P37231); test: Agonist activity at PPARgamma (unknown origin)
T1 sequence (whole entry): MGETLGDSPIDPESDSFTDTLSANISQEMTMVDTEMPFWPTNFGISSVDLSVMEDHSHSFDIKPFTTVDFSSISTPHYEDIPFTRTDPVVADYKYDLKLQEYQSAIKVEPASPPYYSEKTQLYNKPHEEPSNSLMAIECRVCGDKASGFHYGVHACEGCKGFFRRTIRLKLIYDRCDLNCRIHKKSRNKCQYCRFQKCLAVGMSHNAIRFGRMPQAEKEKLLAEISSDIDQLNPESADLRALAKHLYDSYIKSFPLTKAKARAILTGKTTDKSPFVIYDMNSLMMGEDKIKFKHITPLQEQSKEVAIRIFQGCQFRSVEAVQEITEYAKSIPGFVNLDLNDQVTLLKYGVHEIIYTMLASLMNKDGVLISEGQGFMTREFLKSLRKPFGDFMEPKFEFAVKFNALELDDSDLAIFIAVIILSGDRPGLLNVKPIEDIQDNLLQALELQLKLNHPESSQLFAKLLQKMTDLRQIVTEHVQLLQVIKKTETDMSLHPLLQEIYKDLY

SMILES | Activity
C[C@H]1C[C@@H]2OC(=O)[C@@H]3C(=O)OC[C@H]1[C@@H]32 | inactive
COC(=O)[C@@H]1C(=O)OC[C@H]2[C@@H]1[C@H](O)C[C@@H]2C | inactive

Further lines, results first:

Activity | SMILES
inactive | C[C@H]1C[C@@H]2OC(=O)C[C@@H]2[C@@H]1CO
inactive | C[C@H]1C[C@@H](O)[C@@H]2CC(=O)OC[C@@H]21

tested on: MDA-MB-231; test: Growth inhibition of human MDA-MB-231 cells up to 100 uM; assay type: functional, cell-based

SMILES | Activity
C[C@H]1C[C@@H]2OC(=O)C[C@@H]2[C@@H]1CO | inactive
C[C@H]1C[C@@H]2OC(=O)[C@@H]3C(=O)OC[C@H]1[C@@H]32 | inactive
COC(=O)[C@@H]1C(=O)OC[C@H]2[C@@H]1[C@H](O)C[C@@H]2C | inactive
COC(=O)[C@H]1C(=O)O[C@H]2C[C@H](C)[C@@H](CO[C@@H]3O[C@H](CO)[C@@H](O)[C@H](O)[C@H]3O)[C@@H]12 | inactive

tested on: MCF7; test: Growth inhibition of human MCF7 cells up to 100 uM; assay type: functional, cell-based

SMILES | Activity
C[C@H]1C[C@@H]2OC(=O)C[C@@H]2[C@@H]1CO | inactive
C[C@H]1C[C@@H]2OC(=O)[C@@H]3C(=O)OC[C@H]1[C@@H]32 | inactive
COC(=O)[C@@H]1C(=O)OC[C@H]2[C@@H]1[C@H](O)C[C@@H]2C | inactive
C[C@H]1C[C@@H](O)[C@@H]2CC(=O)OC[C@@H]21 | inactive
COC(=O)[C@H]1C(=O)O[C@H]2C[C@H](C)[C@@H](CO[C@@H]3O[C@H](CO)[C@@H](O)[C@H](O)[C@H]3O)[C@@H]12 | inactive
